Assay results as given in PMC4160091 (Frontiers in Cellular Neuroscience, 2014).
“Also recorded” adds a separate entry of the source.

Assays:
NT binding sites = settings: rat, 5–9 days after the birth; ref Lépée-Lorgeoux et al., 1999; cited from earlier work
Source text: This is similar to that reported previously for somatostatin and benzodiazepine binding sites ([Najimi et al., 1991], [2001]). […] We cannot exclude also that these hypothalamic structures have not yet completed their neuronal maturation ([Kopp et al., 1992]). Studies on older ages should reveal the ...

[1] = molecular target: T1, NT binding sites, human hypothalamus (neonate/infant) (Homo sapiens, UniProt P30989); assay: Levocabastine competition with specific 125I-NT binding (competition experiments and autoradiography); settings: all hypothalamic nuclei and areas in all cases
T1 construct: The frozen hypothalami were then sliced as 20 μm thick coronal sections; from tissue; host or cells: postmortem human neonate/infant hypothalamus, 20 μm frozen coronal sections
T1 sequence (P30989 whole entry): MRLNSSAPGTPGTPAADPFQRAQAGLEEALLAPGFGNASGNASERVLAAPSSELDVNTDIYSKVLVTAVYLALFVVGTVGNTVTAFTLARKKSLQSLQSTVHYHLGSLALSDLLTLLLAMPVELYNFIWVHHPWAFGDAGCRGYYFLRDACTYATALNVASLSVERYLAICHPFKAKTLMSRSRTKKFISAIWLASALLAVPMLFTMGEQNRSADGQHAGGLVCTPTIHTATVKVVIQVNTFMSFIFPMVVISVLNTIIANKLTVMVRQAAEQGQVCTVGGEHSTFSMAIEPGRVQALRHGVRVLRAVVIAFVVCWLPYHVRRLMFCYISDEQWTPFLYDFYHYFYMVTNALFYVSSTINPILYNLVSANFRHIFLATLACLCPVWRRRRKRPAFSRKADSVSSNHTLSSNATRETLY
Protocol: After incubation, the slides were washed with ice cold buffer four times for 2 min each and rapidly dried with cold air. Labeled sections and iodinated standards (Amersham, Courtaboeuf Cedex, France) were then apposed to 3H sensitive Ultrofilm (Amersham) in Amersham exposure cassettes. After 2 weeks exposure in dark conditions at 4°C, the film was developed in Kodak D19 (Eastman Kodak, Rochester, NY, USA) for 3 min, dipped in water and fixed with Kodak rapid fixer for 10 min.
Kinetics (IC50 and KD) analysis was computed by the method of [Parker and Waud (1971)].

NT2 receptor = settings: reference not given; cited from earlier work

Compound | number of NT binding sites after blockade of neurotransmission (NT binding sites) | inhibition of specific 125I-NT binding by levocabastine [1] | affinity for the NT2 receptor, in words (NT2 receptor)
COc1cccc(OC)c1-c1cc(C(=O)NC2(C(=O)O)C3CC4CC(C3)CC2C4)nn1-c1ccnc2cc(Cl)ccc12 (stereo not drawn) [SR 48692] | increases greatly the number of NT binding sites | – | –
C[C@@H]1CN([C@H]2CC[C@](C#N)(c3ccc(F)cc3)CC2)CC[C@]1(C(=O)O)c1ccccc1 [levocabastine] | – | insensitivity to levocabastine; also recorded: did not inhibit specific binding of ^125I-NT | has affinity for the NT2 receptor
